Experiment [1] concerns the target T1, ABL1(Q252H)-phosphorylated (Homo sapiens, UniProt P00519, Q252H).
T1 construct: phosphorylated
As to the kind of experiment: biochemical. Set-up: KINOMEscan active site-directed competition binding assay (DiscoveRx), 456 kinases, per cent of control at 300 nM. The following applies: read-out: Percent of Control (%). Summed up: (§1)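 Each compound is tested at 300 nmol/L against a panel of 456 kinases. Interaction is quantified by competition for the kinase active site.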

The target in experiment [2] is T2, ABL1(T315I)-nonphosphorylated (Homo sapiens, UniProt P00519, T315I).
T2 construct: nonphosphorylated
The experiment in a line: biochemical. Further details: KINOMEscan active site-directed competition binding assay (DiscoveRx), 456 kinases, per cent of control at 300 nM. The following applies: read-out: Percent of Control (%). Summed up:
as §1

The target in a further experiment is T3, BRK (Homo sapiens, UniProt Q13882).
T3 construct: gene PTK6
As to the kind of experiment: biochemical. Further details: KINOMEscan active site-directed competition binding assay (DiscoveRx), 456 kinases, per cent of control at 300 nM. To be noted: read-out: Percent of Control (%). Put shortly:
as §1

A further experiment concerns the target CDK7 (Homo sapiens, UniProt P50613). As to the kind of experiment: biochemical. The following applies: read-out: Percent of Control (%). Further details: KINOMEscan active site-directed competition binding assay (DiscoveRx), 456 kinases, per cent of control at 300 nM. Put shortly:
as §1

A further experiment deals with CDK9 (Homo sapiens, UniProt P50750). As to the kind of experiment: biochemical. Set-up: KINOMEscan active site-directed competition binding assay (DiscoveRx), 456 kinases, per cent of control at 300 nM. To be noted: read-out: Percent of Control (%). Put shortly:
as §1

For another experiment, the target named is CLK1 (Homo sapiens, UniProt P49759). The experiment in a line: biochemical. To be noted: read-out: Percent of Control (%). Further details: KINOMEscan active site-directed competition binding assay (DiscoveRx), 456 kinases, per cent of control at 300 nM. Put shortly: as §1
In the next experiment the target is EGFR(E746-A750del) (Homo sapiens, UniProt P00533, DEL746-750). The experiment in a line: biochemical. Set-up: KINOMEscan active site-directed competition binding assay (DiscoveRx), 456 kinases, per cent of control at 300 nM. To be noted: read-out: Percent of Control (%). Summed up: as §1
A further experiment addresses EPHB3 (Homo sapiens, UniProt P54753). As to the kind of experiment: biochemical. Further details: KINOMEscan active site-directed competition binding assay (DiscoveRx), 456 kinases, per cent of control at 300 nM. The following applies: read-out: Percent of Control (%). Summed up: as §1
Another experiment addresses ERN1 (Homo sapiens, UniProt O75460). As to the kind of experiment: biochemical. Further details: KINOMEscan active site-directed competition binding assay (DiscoveRx), 456 kinases, per cent of control at 300 nM. The following applies: read-out: Percent of Control (%). Put shortly: as §1
A further experiment has as its target T4, MEK1 (Homo sapiens, UniProt Q02750).
T4 construct: gene MAP2K1
The experiment in a line: biochemical. Further details: KINOMEscan active site-directed competition binding assay (DiscoveRx), 456 kinases, per cent of control at 300 nM. The following applies: read-out: Percent of Control (%). Summed up:
as §1

In a further experiment the target is MELK (Homo sapiens, UniProt Q14680). The experiment in a line: biochemical. Set-up: KINOMEscan active site-directed competition binding assay (DiscoveRx), 456 kinases, per cent of control at 300 nM. To be noted: read-out: Percent of Control (%). Summed up:
as §1

The target of another experiment is MET (Homo sapiens, UniProt P08581). The experiment in a line: biochemical. Set-up: KINOMEscan active site-directed competition binding assay (DiscoveRx), 456 kinases, per cent of control at 300 nM. The following applies: read-out: Percent of Control (%). Put shortly:
as §1

A further experiment addresses T5, MRCKB (Homo sapiens, UniProt Q9Y5S2).
T5 construct: gene CDC42BPB
The experiment in a line: biochemical. Further details: KINOMEscan active site-directed competition binding assay (DiscoveRx), 456 kinases, per cent of control at 300 nM. The following applies: read-out: Percent of Control (%). Summed up: as §1

In the next experiment the target is NEK10 (Homo sapiens, UniProt Q6ZWH5). The experiment in a line: biochemical. Further details: KINOMEscan active site-directed competition binding assay (DiscoveRx), 456 kinases, per cent of control at 300 nM. To be noted: read-out: Percent of Control (%). Summed up:
as §1

Another experiment concerns the target T6, NIK (Homo sapiens, UniProt Q99558).
T6 construct: gene MAP3K14
As to the kind of experiment: biochemical. Set-up: KINOMEscan active site-directed competition binding assay (DiscoveRx), 456 kinases, per cent of control at 300 nM. To be noted: read-out: Percent of Control (%). Put shortly: as §1

The target of the next experiment is T7, PFTAIRE2 (Homo sapiens, UniProt Q96Q40).
T7 construct: gene CDK15
The experiment in a line: biochemical. Set-up: KINOMEscan active site-directed competition binding assay (DiscoveRx), 456 kinases, per cent of control at 300 nM. To be noted: read-out: Percent of Control (%). Summed up: as §1

The next experiment addresses PKMYT1 (Homo sapiens, UniProt Q99640). The experiment in a line: biochemical. Further details: KINOMEscan active site-directed competition binding assay (DiscoveRx), 456 kinases, per cent of control at 300 nM. To be noted: read-out: Percent of Control (%). Put shortly:
as §1

Another experiment has as its target PRKD3 (Homo sapiens, UniProt O94806). The experiment in a line: biochemical. Further details: KINOMEscan active site-directed competition binding assay (DiscoveRx), 456 kinases, per cent of control at 300 nM. The following applies: read-out: Percent of Control (%). Put shortly:
as §1

Experiment [3] has as its target T8, RSK3(Kin.Dom.2-C-terminal) (Homo sapiens, UniProt Q15349).
T8 construct: gene RPS6KA2; Kin.Dom.2-C-terminal
As to the kind of experiment: biochemical. Set-up: KINOMEscan active site-directed competition binding assay (DiscoveRx), 456 kinases, per cent of control at 300 nM. The following applies: read-out: Percent of Control (%). Summed up:
as §1

The next experiment addresses T9, SGK (Homo sapiens, UniProt O00141).
T9 construct: gene SGK1
The experiment in a line: biochemical. To be noted: read-out: Percent of Control (%). Further details: KINOMEscan active site-directed competition binding assay (DiscoveRx), 456 kinases, per cent of control at 300 nM. Summed up:
as §1

The target of a further experiment is T10, YANK2 (Homo sapiens, UniProt Q9NY57).
T10 construct: gene STK32B
As to the kind of experiment: biochemical. To be noted: read-out: Percent of Control (%). Further details: KINOMEscan active site-directed competition binding assay (DiscoveRx), 456 kinases, per cent of control at 300 nM. Summed up:
as §1

The target in the next experiment is T11, CDK19 (Homo sapiens, UniProt Q9BWU1).
T11 construct: GST-CDK19; with Cyclin C
As to the kind of experiment: TR-FRET ligand displacement assay (Kinase Tracer […], Tb-anti-GST); also KINOMEscan […] inhibition at […]. The format is binding.

Molecules are shown by their SMILES. Read-outs that look alike come from different tables or passages of the source.

The term IC50 denotes the midpoint of a concentration-inhibition curve. A lower IC50 goes with greater potency.

PRKD3, sequence (O94806 whole entry): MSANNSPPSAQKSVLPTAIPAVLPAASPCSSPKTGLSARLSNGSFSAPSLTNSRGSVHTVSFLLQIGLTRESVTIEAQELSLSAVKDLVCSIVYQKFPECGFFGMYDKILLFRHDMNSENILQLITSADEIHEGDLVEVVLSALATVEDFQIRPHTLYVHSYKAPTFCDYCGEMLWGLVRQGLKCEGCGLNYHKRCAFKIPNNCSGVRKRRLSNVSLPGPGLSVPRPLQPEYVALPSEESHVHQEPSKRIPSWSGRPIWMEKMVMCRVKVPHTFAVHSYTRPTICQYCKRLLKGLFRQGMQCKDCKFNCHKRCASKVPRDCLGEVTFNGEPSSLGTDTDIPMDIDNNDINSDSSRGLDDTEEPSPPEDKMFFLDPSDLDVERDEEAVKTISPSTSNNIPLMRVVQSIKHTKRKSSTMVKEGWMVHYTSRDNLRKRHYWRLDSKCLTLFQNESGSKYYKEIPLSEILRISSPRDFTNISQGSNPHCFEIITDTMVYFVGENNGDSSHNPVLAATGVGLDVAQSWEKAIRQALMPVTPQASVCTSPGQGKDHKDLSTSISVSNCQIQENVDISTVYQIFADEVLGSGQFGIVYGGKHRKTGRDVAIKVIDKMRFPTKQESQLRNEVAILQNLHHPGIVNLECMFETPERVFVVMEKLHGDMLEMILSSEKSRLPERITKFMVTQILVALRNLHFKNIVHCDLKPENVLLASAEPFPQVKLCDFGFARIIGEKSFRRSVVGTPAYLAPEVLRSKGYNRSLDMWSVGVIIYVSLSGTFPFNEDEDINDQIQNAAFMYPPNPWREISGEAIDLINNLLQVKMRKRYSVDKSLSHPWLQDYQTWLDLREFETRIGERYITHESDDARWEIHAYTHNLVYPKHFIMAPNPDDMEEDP
T6 sequence (Q99558 whole entry): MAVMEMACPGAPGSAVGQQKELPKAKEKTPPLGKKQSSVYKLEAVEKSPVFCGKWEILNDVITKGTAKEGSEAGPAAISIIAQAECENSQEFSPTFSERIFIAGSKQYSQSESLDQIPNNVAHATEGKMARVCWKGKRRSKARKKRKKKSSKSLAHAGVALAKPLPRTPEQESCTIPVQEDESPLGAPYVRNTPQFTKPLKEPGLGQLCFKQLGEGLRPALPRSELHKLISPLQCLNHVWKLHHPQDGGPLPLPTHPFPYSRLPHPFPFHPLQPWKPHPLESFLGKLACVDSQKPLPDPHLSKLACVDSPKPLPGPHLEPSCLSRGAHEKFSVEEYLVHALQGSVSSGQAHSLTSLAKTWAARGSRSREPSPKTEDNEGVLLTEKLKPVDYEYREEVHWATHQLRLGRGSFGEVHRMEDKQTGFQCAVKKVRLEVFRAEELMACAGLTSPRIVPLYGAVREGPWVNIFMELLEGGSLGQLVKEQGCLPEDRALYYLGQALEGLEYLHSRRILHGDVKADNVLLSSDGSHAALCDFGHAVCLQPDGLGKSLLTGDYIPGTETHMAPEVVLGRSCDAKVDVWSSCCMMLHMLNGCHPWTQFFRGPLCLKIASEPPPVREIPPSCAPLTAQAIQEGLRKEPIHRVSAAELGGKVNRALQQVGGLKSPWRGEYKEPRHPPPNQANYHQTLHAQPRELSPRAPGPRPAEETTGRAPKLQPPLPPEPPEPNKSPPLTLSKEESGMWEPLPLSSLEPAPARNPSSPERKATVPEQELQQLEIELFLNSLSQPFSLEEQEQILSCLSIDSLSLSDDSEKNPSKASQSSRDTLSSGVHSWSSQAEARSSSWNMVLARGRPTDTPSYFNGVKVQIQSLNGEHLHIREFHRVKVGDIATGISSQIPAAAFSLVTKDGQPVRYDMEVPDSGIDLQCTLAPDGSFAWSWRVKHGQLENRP
CDK9, sequence (P50750 whole entry): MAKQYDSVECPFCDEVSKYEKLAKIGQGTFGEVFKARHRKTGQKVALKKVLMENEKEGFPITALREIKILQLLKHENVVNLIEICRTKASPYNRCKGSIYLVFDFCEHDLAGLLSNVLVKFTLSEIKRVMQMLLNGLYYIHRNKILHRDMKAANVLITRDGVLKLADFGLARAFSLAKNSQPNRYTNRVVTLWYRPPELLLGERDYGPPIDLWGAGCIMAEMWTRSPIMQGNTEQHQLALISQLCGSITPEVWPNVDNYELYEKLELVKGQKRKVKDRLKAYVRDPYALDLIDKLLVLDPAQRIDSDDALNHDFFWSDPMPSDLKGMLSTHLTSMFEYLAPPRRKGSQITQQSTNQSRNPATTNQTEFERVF
T3 sequence (Q13882 whole entry): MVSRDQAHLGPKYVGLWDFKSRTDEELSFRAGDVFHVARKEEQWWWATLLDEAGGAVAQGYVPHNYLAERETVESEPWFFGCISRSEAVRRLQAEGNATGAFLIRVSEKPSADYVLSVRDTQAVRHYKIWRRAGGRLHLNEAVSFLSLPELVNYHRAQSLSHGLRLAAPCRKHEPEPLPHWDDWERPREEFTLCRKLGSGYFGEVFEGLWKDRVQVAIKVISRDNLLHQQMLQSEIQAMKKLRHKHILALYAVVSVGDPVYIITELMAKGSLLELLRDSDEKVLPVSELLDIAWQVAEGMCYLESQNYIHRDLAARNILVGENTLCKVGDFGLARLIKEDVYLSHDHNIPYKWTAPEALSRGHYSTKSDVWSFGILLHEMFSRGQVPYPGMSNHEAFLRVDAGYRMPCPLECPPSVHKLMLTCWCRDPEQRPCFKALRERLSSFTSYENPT
NEK10, sequence (Q6ZWH5 whole entry): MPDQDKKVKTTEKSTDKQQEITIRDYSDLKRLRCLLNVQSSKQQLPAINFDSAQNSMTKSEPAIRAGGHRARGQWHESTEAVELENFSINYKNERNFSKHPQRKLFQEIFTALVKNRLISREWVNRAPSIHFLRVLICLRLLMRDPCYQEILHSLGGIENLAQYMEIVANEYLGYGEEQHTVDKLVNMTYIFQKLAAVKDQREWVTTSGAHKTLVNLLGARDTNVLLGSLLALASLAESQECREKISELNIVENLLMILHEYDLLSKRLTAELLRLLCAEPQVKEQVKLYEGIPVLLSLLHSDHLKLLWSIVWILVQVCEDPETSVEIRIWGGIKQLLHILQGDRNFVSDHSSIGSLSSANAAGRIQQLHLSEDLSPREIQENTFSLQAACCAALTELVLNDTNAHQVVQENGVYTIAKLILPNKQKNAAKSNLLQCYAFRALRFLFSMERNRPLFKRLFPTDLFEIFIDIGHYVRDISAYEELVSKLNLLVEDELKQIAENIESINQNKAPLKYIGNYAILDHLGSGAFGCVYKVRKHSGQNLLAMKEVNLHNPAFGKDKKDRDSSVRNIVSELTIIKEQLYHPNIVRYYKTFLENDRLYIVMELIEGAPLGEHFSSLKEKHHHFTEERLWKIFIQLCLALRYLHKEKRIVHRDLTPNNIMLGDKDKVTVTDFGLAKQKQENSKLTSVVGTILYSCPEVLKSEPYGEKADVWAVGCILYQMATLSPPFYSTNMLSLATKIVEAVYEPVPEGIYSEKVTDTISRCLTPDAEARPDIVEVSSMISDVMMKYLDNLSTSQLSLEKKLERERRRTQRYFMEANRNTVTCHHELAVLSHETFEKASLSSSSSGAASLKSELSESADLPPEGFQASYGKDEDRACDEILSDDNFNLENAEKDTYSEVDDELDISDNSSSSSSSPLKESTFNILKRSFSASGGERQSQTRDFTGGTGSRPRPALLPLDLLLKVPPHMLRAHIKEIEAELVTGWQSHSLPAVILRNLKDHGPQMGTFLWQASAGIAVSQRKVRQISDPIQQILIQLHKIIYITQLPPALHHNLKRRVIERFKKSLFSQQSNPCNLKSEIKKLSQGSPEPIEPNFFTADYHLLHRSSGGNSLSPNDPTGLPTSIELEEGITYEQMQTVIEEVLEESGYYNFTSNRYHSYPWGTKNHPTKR
ERN1, sequence (O75460 whole entry): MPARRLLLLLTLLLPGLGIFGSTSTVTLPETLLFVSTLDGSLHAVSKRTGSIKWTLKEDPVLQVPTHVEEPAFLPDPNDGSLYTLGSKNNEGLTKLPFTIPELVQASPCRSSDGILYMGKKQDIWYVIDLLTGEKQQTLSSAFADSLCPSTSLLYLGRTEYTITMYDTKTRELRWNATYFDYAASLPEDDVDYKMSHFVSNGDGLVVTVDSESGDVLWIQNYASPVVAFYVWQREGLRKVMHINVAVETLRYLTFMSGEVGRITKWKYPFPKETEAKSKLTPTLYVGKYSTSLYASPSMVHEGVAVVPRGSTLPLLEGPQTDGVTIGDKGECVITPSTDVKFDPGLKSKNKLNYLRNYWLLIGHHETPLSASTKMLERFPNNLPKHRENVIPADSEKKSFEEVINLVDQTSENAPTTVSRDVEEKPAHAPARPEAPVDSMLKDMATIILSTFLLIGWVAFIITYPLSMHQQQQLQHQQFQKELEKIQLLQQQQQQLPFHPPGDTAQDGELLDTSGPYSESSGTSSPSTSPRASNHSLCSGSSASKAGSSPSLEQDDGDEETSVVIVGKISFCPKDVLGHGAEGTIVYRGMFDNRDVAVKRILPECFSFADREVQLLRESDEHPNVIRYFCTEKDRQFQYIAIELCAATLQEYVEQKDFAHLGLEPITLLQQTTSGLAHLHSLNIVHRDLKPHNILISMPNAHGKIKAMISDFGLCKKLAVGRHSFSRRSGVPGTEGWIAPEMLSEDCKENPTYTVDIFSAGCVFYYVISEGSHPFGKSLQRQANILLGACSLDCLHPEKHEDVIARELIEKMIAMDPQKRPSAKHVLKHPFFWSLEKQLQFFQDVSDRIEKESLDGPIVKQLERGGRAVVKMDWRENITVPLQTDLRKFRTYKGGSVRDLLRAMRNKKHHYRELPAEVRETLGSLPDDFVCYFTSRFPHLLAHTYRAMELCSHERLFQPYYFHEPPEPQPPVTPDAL

On to `O=C(/C=C/c1cnccc1-c1ccc(F)cc1)Nc1ccc(CCc2nnco2)cc1` [T-418, (2E)-3-(4-(4-fluorophenyl)pyridin-3-yl)-N-(4-(2-(1,3,4-oxadiazol-2-yl)ethyl)phenyl)acrylamide], for which the remaining binding at 0.3 µM came to 84% in experiment [1] (sheet T-418); 100% in experiment [2] (sheet T-418); 87% at BRK (sheet T-418); 100% on CDK7 (sheet T-418); 83% at CDK9 (sheet T-418); 100% on CLK1 (sheet T-418). Also, the remaining binding at 0.3 µM at EGFR(E746-A750del) (sheet T-418) was 92%; at EPHB3 (sheet T-418) it was 98%; at ERN1 (sheet T-418), 100%; on MEK1 (sheet T-418) it was 100%; on MELK (sheet T-418), 100%; on MET (sheet T-418) it was 92%. The remaining binding at 0.3 µM on MRCKB (sheet T-418) was found to be 100%; at NEK10 (sheet T-418), 100%; at NIK (sheet T-418) it was 100%; at PFTAIRE2 (sheet T-418), 92%; at PKMYT1 (sheet T-418), 73%; on PRKD3 (sheet T-418), 100%. Further, the remaining binding at 0.3 µM in experiment [3] (sheet T-418) was determined as 100%; on SGK (sheet T-418), 88%; at YANK2 (sheet T-418), 78%.

On CDK19, `Cc1ncccc1Oc1sc(C(N)=O)c2c1-c1c(cnn1C)CC2` [T-474, 1-methyl-8-((2-methylpyridin-3-yl)oxy)-4,5-dihydro-1H-thieno[3,4-g]indazole-6-carboxamide] displayed a half-inhibitory concentration (IC50) of 1.9 nM. Further, the remaining binding at 0.3 µM in experiment [1] was 89%; in [2], 100%; on BRK, 100%; on CDK7, 100%; at CDK9, 80%; on CLK1, 32%. Besides, the remaining binding at 0.3 µM at EGFR(E746-A750del) is 87%; at EPHB3, 100%; at ERN1, 89%; on MEK1 it was 100%; on MELK, 71%; on MET, 100%. Also, the remaining binding at 0.3 µM at MRCKB came out at 100%; on NEK10, 100%; on NIK it was 100%; on PFTAIRE2, 100%; at PKMYT1, 71%; at PRKD3 it was 100%. For the same compound, the remaining binding at 0.3 µM (in [3]; on SGK; on YANK2) was 100% throughout.

Values taken from paper PMC5862592, “CDK8/19 inhibition induces premature G1/S transition and ATR-dependent cell death in prostate cancer cells” (Oncotarget, 2018).
